Results reported in US6358885B1, “Substituted phenylheterocyclic herbicides” (Mississippi State University, priority 1992, dated 2002).

Columns and labels:
[1] = system: barley; test: Test B preemergence/postemergence greenhouse plant response rating 0 to 10; type: in vivo, Hordeum vulgare; details: 0 to 10 scale
How it was run: (§1)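 Postemergence treatment of plants two to eighteen cm tall ran alongside preemergence treatment of planted seed, each using compound in a non-phytotoxic solvent.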

[2] = system: bedstraw; test: as above; type: in vivo, Galium aparine; details: 0 to 10 scale
How it was run: as §1

[3] = system: cheatgrass; test: as above; type: in vivo, Bromus secalinus; details: 0 to 10 scale
How it was run: as §1

[4] = system: cocklebur; test: as above; type: in vivo, Xanthium pensylvanicum; details: 0 to 10 scale
How it was run: as §1

[5] = system: giant foxtail; test: as above; type: in vivo, Setaria faberii; details: 0 to 10 scale
How it was run: as §1

[6] = system: lambsquarters; test: as above; type: in vivo, Chenopodium album; details: 0 to 10 scale
How it was run: as §1

[7] = system: morningglory; test: as above; type: in vivo, Ipomoea hederacea; details: 0 to 10 scale
How it was run: as §1

[8] = system: soybean; test: as above; type: in vivo, Glycine max; details: 0 to 10 scale
How it was run: as §1

[9] = system: velvetleaf; test: as above; type: in vivo, Abutilon theophrasti; details: 0 to 10 scale
How it was run: as §1

[10] = system: barley; test: Test C preemergence/postemergence greenhouse plant response rating 0 to 100; type: in vivo, Hordeum vulgare; details: POSTEMERGENCE; for Plant response rating Barley Igri: 0 to 100 scale
How it was run: (§2)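 Compounds in non-phytotoxic solvent went onto sandy loam before emergence (seeded one day earlier) or onto plants at the one-to-four leaf stage. Duck salad was treated via flood water (~2.5 cm, maintained) over silt loam.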

[11] = system: blackgrass; test: as above; type: in vivo, Alopecurus myosuroides; details: POSTEMERGENCE; for Plant response rating, Blackgrass: 0 to 100 scale
How it was run: as §2

[12] = system: chickweed; test: as above; type: in vivo, Stellaria media; details: POSTEMERGENCE; for Plant response rating, Chickweed: 0 to 100 scale
How it was run: as §2

[13] = system: giant foxtail; test: as above; type: in vivo, Setaria faberii; details: POSTEMERGENCE; for Plant response rating, Giant foxtail: 0 to 100 scale
How it was run: as §2

[14] = system: morningglory; test: as above; type: in vivo, Ipomoea hederacea; details: POSTEMERGENCE; for Plant response rating, Morningglory: 0 to 100 scale
How it was run: as §2

[15] = system: rape; test: as above; type: in vivo, Brassica napus; details: POSTEMERGENCE; for Plant response rating, Rape: 0 to 100 scale
How it was run: as §2

[16] = system: sorghum; test: as above; type: in vivo, Sorghum bicolor; details: POSTEMERGENCE; for Plant response rating, Sorghum: 0 to 100 scale
How it was run: as §2

[17] = system: soybean; test: as above; type: in vivo, Glycine max; details: POSTEMERGENCE; for Plant response rating, Soybean: 0 to 100 scale
How it was run: as §2

[18] = system: rice; test: Test C flood test plant response rating 0 to 100; type: in vivo, Oryza sativa; details: for Plant response rating (0 to 100), Rice Japonica: under POSTEMERGENCE head (flood test species); for Plant response rating Rice Japonica: flood test species listed under POSTEMERGENCE, 0 to 100 scale
How it was run: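 Compounds in non-phytotoxic solvent applied preemergence to sandy loam one day after planting, postemergence at the 1–4 leaf stage, or to ~2.5 cm floodwater over silt loam.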

## CC(C)OC(=O)COc1cc(-c2nn3c(c2Cl)CCCC3)c(F)cc1Cl [Compound 39]
[1]; POSTEMERGENCE, Rate 50 g/ha
  Plant response rating, Barley: 4
[1]; POSTEMERGENCE, Rate 200 g/ha
  Plant response rating, Barley: 6
[1]; PREEMERGENCE, Rate 50 g/ha
  Plant response rating, Barley: 0
[1]; Rate 200 g/ha, PREEMERGENCE
  Plant response rating, Barley: 0
[2]; POSTEMERGENCE, Rate 200 g/ha
  Plant response rating, Bedstraw: 10
[2]; PREEMERGENCE, Rate 50 g/ha
  Plant response rating, Bedstraw: 4
[2]; Rate 200 g/ha, PREEMERGENCE
  Plant response rating, Bedstraw: 9
[3]; POSTEMERGENCE, Rate 50 g/ha
  Plant response rating, Cheatgrass: 4
[3]; POSTEMERGENCE, Rate 200 g/ha
  Plant response rating, Cheatgrass: 4
[3]; PREEMERGENCE, Rate 50 g/ha
  Plant response rating, Cheatgrass: 0
[3]; Rate 200 g/ha, PREEMERGENCE
  Plant response rating, Cheatgrass: 2
[4]; POSTEMERGENCE, Rate 50 g/ha
  Plant response rating, Cocklebur: 10
[4]; POSTEMERGENCE, Rate 200 g/ha
  Plant response rating, Cocklebur: 10
[4]; PREEMERGENCE, Rate 50 g/ha
  Plant response rating, Cocklebur: 0
[4]; Rate 200 g/ha, PREEMERGENCE
  Plant response rating, Cocklebur: 1
[5]; POSTEMERGENCE, Rate 50 g/ha
  Plant response rating, Giant foxtail: 4
[5]; PREEMERGENCE, Rate 50 g/ha
  Plant response rating, Giant foxtail: 5
[5]; Rate 200 g/ha, POSTEMERGENCE
  Plant response rating, Giant foxtail: 5
[5]; Rate 200 g/ha, PREEMERGENCE
  Plant response rating, Giant foxtail: 2
[6]; POSTEMERGENCE, Rate 50 g/ha
  Plant response rating, Lambsquarter: 9
[6]; PREEMERGENCE, Rate 50 g/ha
  Plant response rating, Lambsquarter: 10
[6]; Rate 200 g/ha, POSTEMERGENCE
  Plant response rating, Lambsquarter: 10
[6]; Rate 200 g/ha, PREEMERGENCE
  Plant response rating, Lambsquarter: 10
[7]; POSTEMERGENCE, Rate 50 g/ha
  Plant response rating, Morningglory: 8
[7]; PREEMERGENCE, Rate 50 g/ha
  Plant response rating, Morningglory: 0
[7]; Rate 200 g/ha, POSTEMERGENCE
  Plant response rating, Morningglory: 9
[7]; Rate 200 g/ha, PREEMERGENCE
  Plant response rating, Morningglory: 2
[8]; POSTEMERGENCE, Rate 50 g/ha
  Plant response rating, Soybean: 2
[8]; PREEMERGENCE, Rate 50 g/ha
  Plant response rating, Soybean: 0
[8]; Rate 200 g/ha, POSTEMERGENCE
  Plant response rating, Soybean: 4
[8]; Rate 200 g/ha, PREEMERGENCE
  Plant response rating, Soybean: 0
[9]; POSTEMERGENCE, Rate 50 g/ha
  Plant response rating, Velvetleaf: 9
[9]; PREEMERGENCE, Rate 50 g/ha
  Plant response rating, Velvetleaf: 2
[9]; Rate 200 g/ha, POSTEMERGENCE
  Plant response rating, Velvetleaf: 10
[9]; Rate 200 g/ha, PREEMERGENCE
  Plant response rating, Velvetleaf: 4
[10]; 62 g/ha
  Plant response rating Barley Igri: 30
[10]; 125 g/ha
  Plant response rating Barley Igri: 40
[10]; Rate 16 g/ha
  Plant response rating (0 to 100), Barley Igri: 20
[10]; Rate 31 g/ha
  Plant response rating (0 to 100), Barley Igri: 30
[11]; 62 g/ha
  Plant response rating, Blackgrass: 30
[11]; 125 g/ha
  Plant response rating, Blackgrass: 40
[11]; Rate 16 g/ha
  Plant response rating (0 to 100), Blackgrass: 10
[11]; Rate 31 g/ha
  Plant response rating (0 to 100), Blackgrass: 10
[12]; 62 g/ha
  Plant response rating, Chickweed: 40
[12]; 125 g/ha
  Plant response rating, Chickweed: 70
[12]; Rate 16 g/ha
  Plant response rating (0 to 100), Chickweed: 20
[12]; Rate 31 g/ha
  Plant response rating (0 to 100), Chickweed: 30
[13]; 62 g/ha
  Plant response rating, Giant foxtail: 30
[13]; 125 g/ha
  Plant response rating, Giant foxtail: 60
[13]; Rate 16 g/ha
  Plant response rating (0 to 100), Giant foxtail: 10
[13]; Rate 31 g/ha
  Plant response rating (0 to 100), Giant foxtail: 20
[14]; 62 g/ha
  Plant response rating, Morningglory: 100
[14]; 125 g/ha
  Plant response rating, Morningglory: 100
[14]; Rate 16 g/ha
  Plant response rating (0 to 100), Morningglory: 60
[14]; Rate 31 g/ha
  Plant response rating (0 to 100), Morningglory: 100
[15]; 62 g/ha
  Plant response rating, Rape: 60
[15]; 125 g/ha
  Plant response rating, Rape: 70
[15]; Rate 16 g/ha
  Plant response rating (0 to 100), Rape: 20
[15]; Rate 31 g/ha
  Plant response rating (0 to 100), Rape: 50
[16]; 62 g/ha
  Plant response rating, Sorghum: 50
[16]; 125 g/ha
  Plant response rating, Sorghum: 60
[16]; Rate 16 g/ha
  Plant response rating (0 to 100), Sorghum: 20
[16]; Rate 31 g/ha
  Plant response rating (0 to 100), Sorghum: 30
[17]; 62 g/ha
  Plant response rating, Soybean: 60
[17]; 125 g/ha
  Plant response rating, Soybean: 70
[17]; Rate 16 g/ha
  Plant response rating (0 to 100), Soybean: 30
[17]; Rate 31 g/ha
  Plant response rating (0 to 100), Soybean: 50
[18]; Rate 16 g/ha
  Plant response rating (0 to 100), Rice Japonica: 20
[18]; Rate 31 g/ha
  Plant response rating (0 to 100), Rice Japonica: 30
[18]; 62 g/ha
  Plant response rating Rice Japonica: 30
[18]; 125 g/ha
  Plant response rating Rice Japonica: 30
